How the values were obtained:
Trichoplusia ni [1] = test: Toxicity against Trichoplusia ni (cabbage looper) third-instar larvae stage assessed as mortality at 10 ug/ml for 24 hr by topical application; format: functional
Trichoplusia ni [2] = test: Antifeedant activity against Trichoplusia ni (cabbage looper) third-instar larvae stage assessed as concentrations causing 50% feeding deterrence by feeding deterrent bioassay; format: functional, organism-based
Trichoplusia ni [3] = test: Antifeedant activity against Trichoplusia ni (cabbage looper) third-instar larvae stage assessed as feeding deterrence index at 50 microg/cm'2 by feeding deterrent bioassay; format: functional
Trichoplusia ni [4] = test: Protection of intact cabbage plants from Trichoplusia ni (cabbage looper) measured as reduction in weight of larvae by lopper in green house for 10 days (reference value: 33.8 mg); format: functional
Trichoplusia ni [5] = test: Protection of intact cabbage plants from Trichoplusia ni (cabbage looper) measured as leaf area consumed by lopper in green house for 10 days (reference value: 8.5 cm'2); format: functional

Row | Structure (SMILES) | mortality at 10 µg/mL (Trichoplusia ni [1]) | DC50 (Trichoplusia ni [2]) | FDI (Trichoplusia ni [3]) | Activity (Trichoplusia ni [4]) | Activity (Trichoplusia ni [5])
1 | O=C1C=Cc2ccccc2C1=O [1,2-NAPHTHOQUINONE] | 3.3% | 1.8 microg/cm2 | 100% |  | 
2 | O=C1C(Cl)=C(N2CCOCC2)C(=O)c2ccccc21 [2-Chloro-3-morpholino-1,4-naphthoquinone] | 12% | 9.7 microg/cm2 | 100% |  | 
3 | c1ccc2c(c1)ccc1cccnc12 [1-NAPHTHOQUINOLINE] | 10% | 16.4 microg/cm2 | 75.7% |  | 
4 | CC1=CC(=O)c2c(O)cccc2C1=O [PLUMBAGIN] | 7% | 3.3 microg/cm2 | 100% | 12.7 mg | 3.5 cm2
5 | O=C1C(Cl)=C(Cl)C(=O)C(Cl)=C1Cl [CHLORANIL] | 10% |  | 35.8% |  | 
6 | O=C1C(=O)c2ccccc2-c2ccccc21 [9,10-PHENANTHRENEQUINONE] | 10% |  | -15.4% |  | 
7 | O=C1C(Br)=C(Br)C(=O)c2ccccc21 [2,3-Dibromo-1,4-naphthoquinone] | 10% | 26.4 microg/cm2 | 100% |  | 
8 | O=C1C=CC(=O)c2c(O)ccc(O)c21 [NAPHTHAZALIN] | 20% | 10.1 microg/cm2 | 100% |  | 
9 | CC1=C(Br)C(=O)C(C(C)C)=C(Br)C1=O [Dibromothymoquinone] | 5% |  | 42.2% |  | 
10 | O=C1c2ccccc2C(=O)c2c(O)cccc21 [1-HYDROXYANTHRAQUINONE] | 10% |  | -41.5% |  | 
11 | CC1=CC(=O)C(C(C)C)=CC1=O [THYMOQUINONE] | 26.7% | 19.3 microg/cm2 | 100% |  | 
12 | COC1=C(OC)C(=O)C(C)=CC1=O [Ubiquinone Qo] | 23.3% | 4.2 microg/cm2 | 86.7% |  | 
13 | Cc1cc(O)c2c(c1)C(=O)c1cc(O)cc(O)c1C2=O [EMODIN] | 10% |  | 22.1% |  | 
14 | CC1=CC(=O)c2ccccc2C1=O [MENADIONE] | 13% | 6.3 microg/cm2 | 100% |  | 
15 | O=C1c2cccc(O)c2C(=O)c2c(O)cccc21 [DANTHRON] | 12% | 9.2 microg/cm2 | 86.2% |  | 
16 | O=C1C=CC(=O)c2c(O)cccc21 [JUGLONE] | 5% | 2.1 microg/cm2 | 100% | 8.1 mg | 1.7 cm2
17 | COC1=CC(=O)c2ccccc2C1=O [2-Methoxy-1,4-naphthoquinone] | 8% | 2.6 microg/cm2 | 96.8% |  | 
18 | O=C1C=CC(=O)C=C1 [BENZOQUINONE] |  |  | 17.8% |  | 
19 | O=C1C=C(Br)C(=O)c2ccccc21 [2-Bromo-1,4-naphthoquinone] | 15% | 8.4 microg/cm2 | 80.7% |  | 
20 | CC(C)=CCC1=C(O)C(=O)c2ccccc2C1=O [LAPACHOL] | 10% |  | 9.1% |  | 
21 | O=C1c2cccc(O)c2C(=O)c2cccc(O)c21 [ANTHRARUFIN] | 15% |  | -58.6% |  | 
22 | O=C1C(Cl)=C(Cl)C(=O)c2ccccc21 [Dichlon] | 8% |  | 39.8% |  | 

From ChEMBL document CHEMBL3045949, “Antifeedant and toxic effects of naturally occurring and synthetic quinones to the cabbage looper, Trichoplusia ni” (Crop Prot, 2012)
